Literature values, collected in US20070155727A1, “Amide inhibitors of leukotriene A4 hydrolase” (Schering Aktiengessellschaft, priority 2005, published 2007).

What was measured:
[1] = biological target: LTB4 receptor; conditions: read-out: Kd, additional lower affinity LTB4 receptors; neutrophils
[2] = biological target: BLT1; conditions: human BLT1 and its mouse, rat and guinea pig orthologues
[3] = biological target: T1, LTA4-h (Rattus norvegicus, UniProt P30349); conditions: oral administration, rat peritoneum in vivo
T1 construct: and in rat peritoneum in vivo; host or cells: rat peritoneum in vivo
T1 sequence (P30349 1-611): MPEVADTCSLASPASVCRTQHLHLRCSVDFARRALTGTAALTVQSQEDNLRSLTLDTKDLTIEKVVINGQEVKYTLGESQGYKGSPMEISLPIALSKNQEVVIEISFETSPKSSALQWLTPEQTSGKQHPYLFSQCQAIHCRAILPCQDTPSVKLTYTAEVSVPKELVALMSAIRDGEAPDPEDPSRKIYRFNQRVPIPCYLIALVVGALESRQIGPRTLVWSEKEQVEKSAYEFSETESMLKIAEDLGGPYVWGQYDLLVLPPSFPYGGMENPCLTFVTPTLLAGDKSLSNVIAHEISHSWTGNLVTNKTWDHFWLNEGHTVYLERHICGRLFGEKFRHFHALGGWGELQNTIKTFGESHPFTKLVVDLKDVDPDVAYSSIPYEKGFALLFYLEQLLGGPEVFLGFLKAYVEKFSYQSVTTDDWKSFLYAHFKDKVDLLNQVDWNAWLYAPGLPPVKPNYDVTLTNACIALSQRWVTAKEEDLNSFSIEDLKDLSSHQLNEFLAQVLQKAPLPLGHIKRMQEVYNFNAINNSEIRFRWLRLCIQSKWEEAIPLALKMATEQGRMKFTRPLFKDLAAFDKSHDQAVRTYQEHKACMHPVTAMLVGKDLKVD

[4] = biological target: T2, LTA4-h (Mus musculus, UniProt P24527); conditions: oral administration, mouse blood ex vivo
T2 construct: host or cells: mouse blood ex vivo after oral dosing
T2 sequence (P24527 1-611): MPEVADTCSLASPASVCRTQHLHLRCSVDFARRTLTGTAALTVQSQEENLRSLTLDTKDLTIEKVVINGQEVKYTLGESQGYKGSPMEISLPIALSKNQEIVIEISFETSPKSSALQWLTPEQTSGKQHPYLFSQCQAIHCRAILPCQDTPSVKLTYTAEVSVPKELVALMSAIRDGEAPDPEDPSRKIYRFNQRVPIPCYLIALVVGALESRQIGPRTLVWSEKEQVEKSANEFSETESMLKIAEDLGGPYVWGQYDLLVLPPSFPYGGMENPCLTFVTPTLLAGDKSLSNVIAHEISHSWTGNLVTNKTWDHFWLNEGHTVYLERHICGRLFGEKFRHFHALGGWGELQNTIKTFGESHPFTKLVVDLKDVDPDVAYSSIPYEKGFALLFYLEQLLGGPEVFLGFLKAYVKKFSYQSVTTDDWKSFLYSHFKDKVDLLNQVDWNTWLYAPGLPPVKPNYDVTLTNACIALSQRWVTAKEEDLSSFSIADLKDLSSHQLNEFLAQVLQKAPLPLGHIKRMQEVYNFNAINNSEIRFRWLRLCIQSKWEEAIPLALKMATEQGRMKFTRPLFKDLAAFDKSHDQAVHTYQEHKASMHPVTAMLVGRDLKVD

[5] = system: colitis; conditions: eight weeks of treatment, cotton top tamarins

Row | Structure (SMILES) | Kd [1] | Kd [2] | inhibition of ionophore-induced LTB4 production [3] | inhibition of ionophore-induced LTB4 production [4] | colitis symptoms [5]
1 | CCCCC/C=C\C[C@@H](O)/C=C/C=C/C=C\[C@@H](O)CCCC(=O)O [LTB4, Leukotriene B4] | > 60 nM | 0.1 to 0.7 nM | – | – | –
2 | CN(CCCOc1ccc(Cc2ccccc2)cc1)CCC(=O)O.Cl [SC57461] | – | – | caused inhibition of ionophore-induced LTB4 production | caused inhibition of ionophore-induced LTB4 production | significantly improved colitis symptoms
